The values below are quoted from earlier work in paper PMC10049495, “Antitumor Activity of PEGylated and TEGylated Phenothiazine Derivatives: Structure–Activity Relationship” (International Journal of Molecular Sciences, 2023).

One data set deals with Colo205. The note with it: cited from earlier work.
The test system of another data set is U87-MG. The note with it: cell line not clear from layout (U87-MG assumed); cited from earlier work.

As for `CN(C)CCCN1c2ccccc2Sc2ccc(Cl)cc21` [Chlorpromazine], the IC50 with Colo205 was 10 µM.

`OCCN1CCN(CCCN2c3ccccc3Sc3ccc(Cl)cc32)CC1` [Perphenazine]: in the data set with U87-MG, the IC50 is 6.8 µM.

For orientation: IC50 means the concentration needed to halve the response being measured.
